Test results as given in patent publication US10232026B2, “Vaccine for mycoplasma infection” (NATIONAL INSTITUTE OF INFECTIOUS DISEASES, priority 2009, dated 2019).

Test system: human peripheral-blood mononuclear cells
Assay: Interferon γ production by peripheral-blood mononuclear cells with interleukin 2 (ELISA)
Assay type: cell-based
Conditions: lipid antigen added with interleukin 2, supernatant ELISA
Procedure: It was found out that the production amount of interferon γ increased by 2 folds or more when mycoplasma-mimic particles (GGPL-I, GGPL-III) were added as compared with administration of interleukin 2 alone using human peripheral-blood mononuclear cells. The mononuclear cells were separated from the peripheral blood of a healthy individual, and a sample in which interleukin 2 and the lipid antigen were added to the mononuclear cells, and a sample of the mononuclear cells without adding the lipid antigen were cultured, and supernatants thereof were recovered, and the amounts of interferon γ in the supernatants were measured with an enzyme antibody immune method (ELISA method).
Mononuclear cells were separated from the peripheral blood of a healthy individual. A sample in which interleukin 2 and mycoplasma-mimic particles (GGPL-I, or GGPL-III) were added to the mononuclear cells, and a sample of the mononuclear cells with no addition of the mycoplasma-mimic particles were cultured, and supernatants thereof were recovered, and the amounts of interferon γ in the supernatant were measured with an enzyme antibody immune method (ELISA method).
Mononuclear cells were separated from the peripheral blood of a healthy individual. […]

With `CCCCCCCCCCCCCCCC(=O)OC[C@H](CO[C@H]1O[C@H](COP(=O)(O)OCC(N)COP(=O)(O)OCC[N+](C)(C)C)[C@@H](O)[C@H](O)[C@H]1O)OC(=O)CCCCCCCCCCCCCCC` (stereo partly shown) [GGPL-III] the “production amount of interferon γ in comparison with no addition of the lipid antigen” value was “remarkably increased”.
